According to ChEMBL document CHEMBL1130889, “The synthesis and biological evaluation of a novel series of indole PDE4 inhibitors I” (Bioorg Med Chem Lett, 1998):

System: not listed separately
Assay: Terminal half life was evaluated in mice after intravenous administration
Format: ADME, organism-based
Details: mouse, in vivo

half-life | Structure (SMILES)
156 min | COc1ccc(Cn2cc(C)c3ccc(C(=O)Nc4c(Cl)cncc4Cl)cc32)cc1

System: not listed separately
Assay: Volume of distribution was evaluated in mice after intravenous administration
Format: ADME, organism-based
Details: mouse, in vivo, read-out: Vdss

Vd | Structure (SMILES)
2.4 L/kg | COc1ccc(Cn2cc(C)c3ccc(C(=O)Nc4c(Cl)cncc4Cl)cc32)cc1

System: Mus musculus
Assay: Inhibition of LPS-induced tumor necrosis factor-alpha (TNF-alpha) production in mice at 50 mg/kg
Format: functional
Details: not given

Structure (SMILES) | inhibition in vivo at 50 mg/kg | ED50
Cc1cn(CCC2CCCCC2)c2cc(C(=O)Nc3c(Cl)cncc3Cl)ccc12 | 0% | –
Cc1cn(CCCc2ccccc2)c2cc(C(=O)Nc3c(Cl)cncc3Cl)ccc12 | 17% | –
Cc1cn(Cc2cccc([N+](=O)[O-])c2)c2cc(C(=O)Nc3c(Cl)cncc3Cl)ccc12 | 16% | –
Cc1nc(Cn2cc(C)c3ccc(C(=O)Nc4c(Cl)cncc4Cl)cc32)cs1 | 0% | –
Cc1cn(Cc2ccc(S(C)(=O)=O)cc2)c2cc(C(=O)Nc3c(Cl)cncc3Cl)ccc12 | 0% | –
Cc1cn(Cc2ccc3ccccc3c2)c2cc(C(=O)Nc3c(Cl)cncc3Cl)ccc12 | 0% | –
COc1ccc(Cn2cc(C)c3ccc(C(=O)Nc4c(Cl)cncc4Cl)cc32)cc1 | 20% | –
Cc1cn(Cc2ccc(C(N)=O)cc2)c2cc(C(=O)Nc3c(Cl)cncc3Cl)ccc12 | 0% | –
Cc1ccc(S(=O)(=O)n2cc(C)c3ccc(C(=O)Nc4c(Cl)cncc4Cl)cc32)cc1 | 0% | –
Cc1cn(Cc2ccccc2)c2cc(C(=O)Nc3c(Cl)cncc3Cl)ccc12 | 0% | –
CCCCCCCn1cc(C)c2ccc(C(=O)Nc3c(Cl)cncc3Cl)cc21 | 22% | –
Cc1cn(CC2CCCCC2)c2cc(C(=O)Nc3c(Cl)cncc3Cl)ccc12 | 0% | –
Cc1noc(C)c1Cn1cc(C)c2ccc(C(=O)Nc3c(Cl)cncc3Cl)cc21 | 0% | –
COc1ccc(C(=O)Nc2c(Cl)cncc2Cl)cc1OC1CCCC1 | – | 10 mg/kg
Cc1cn(CCCC2CCCCC2)c2cc(C(=O)Nc3c(Cl)cncc3Cl)ccc12 | 27% | –

Biological target: Phosphodiesterase 4 (Cavia porcellus)
Assay: Inhibitory activity against Phosphodiesterase type IV (PDE4) obtained from guinea-pig macrophage was evaluated
Details: not given

IC50 | Structure (SMILES)
80 nM | COc1ccccc1Cn1cc(C)c2ccc(C(=O)Nc3c(Cl)cncc3Cl)cc21
52 nM | Cc1cn(Cc2cccc([N+](=O)[O-])c2)c2cc(C(=O)Nc3c(Cl)cncc3Cl)ccc12
200 nM | Cc1cn(Cc2ccc(S(C)(=O)=O)cc2)c2cc(C(=O)Nc3c(Cl)cncc3Cl)ccc12
5.2 nM | Cc1cn(Cc2ccc3ccccc3c2)c2cc(C(=O)Nc3c(Cl)cncc3Cl)ccc12
60 nM | COc1cccc(Cn2cc(C)c3ccc(C(=O)Nc4c(Cl)cncc4Cl)cc32)c1
300 nM | Cc1cn(Cc2ccc(C(N)=O)cc2)c2cc(C(=O)Nc3c(Cl)cncc3Cl)ccc12
18 nM | Cc1cn(Cc2ccccc2)c2cc(C(=O)Nc3c(Cl)cncc3Cl)ccc12
70 nM | Cc1cn(CCc2ccccc2)c2cc(C(=O)Nc3c(Cl)cncc3Cl)ccc12

The remaining lines, values behind:

Structure (SMILES) | IC50
Cc1cn(C2CCCC2)c2cc(C(=O)Nc3c(Cl)cncc3Cl)ccc12 | 15 nM
Cc1cn(CCC2CCCCC2)c2cc(C(=O)Nc3c(Cl)cncc3Cl)ccc12 | 3.2 nM
Cc1c[nH]c2cc(C(=O)Nc3c(Cl)cncc3Cl)ccc12 | 5 nM
Cc1cn(CCCc2ccccc2)c2cc(C(=O)Nc3c(Cl)cncc3Cl)ccc12 | 25 nM
Cc1nc(Cn2cc(C)c3ccc(C(=O)Nc4c(Cl)cncc4Cl)cc32)cs1 | 42 nM
Cc1cn(Cc2cccc3ccccc23)c2cc(C(=O)Nc3c(Cl)cncc3Cl)ccc12 | 46 nM
Cc1ccc(S(=O)(=O)n2cc(Cc3ccccc3)c3ccc(C(=O)Nc4c(Cl)cncc4Cl)cc32)cc1 | > 10000 nM
Cc1cn(CCN2CCOCC2)c2cc(C(=O)Nc3c(Cl)cncc3Cl)ccc12 | 380 nM
Cc1ccc(S(=O)(=O)n2cc(C)c3ccc(C(=O)Nc4c(Cl)cncc4Cl)cc32)cc1 | 45 nM
CCCCCCCn1cc(C)c2ccc(C(=O)Nc3c(Cl)cncc3Cl)cc21 | 25 nM
Cc1cn(CC2CCCCC2)c2cc(C(=O)Nc3c(Cl)cncc3Cl)ccc12 | 100 nM
Cc1noc(C)c1Cn1cc(C)c2ccc(C(=O)Nc3c(Cl)cncc3Cl)cc21 | 187 nM
CCc1cn(S(=O)(=O)c2ccc(C)cc2)c2cc(C(=O)Nc3c(Cl)cncc3Cl)ccc12 | 2900 nM
Cc1cn(CCCC2CCCCC2)c2cc(C(=O)Nc3c(Cl)cncc3Cl)ccc12 | 220 nM

Biological target: Phosphodiesterase 4 (Cavia porcellus)
Assay: Binding affinity against PDE4 was determined using [3H]- rolipram in guinea pig brain membrane binding assay
Details: not given

Ki | Structure (SMILES)
54 nM | COc1ccccc1Cn1cc(C)c2ccc(C(=O)Nc3c(Cl)cncc3Cl)cc21
75 nM | Cc1cn(Cc2cccc([N+](=O)[O-])c2)c2cc(C(=O)Nc3c(Cl)cncc3Cl)ccc12
300 nM | Cc1cn(Cc2ccc(S(C)(=O)=O)cc2)c2cc(C(=O)Nc3c(Cl)cncc3Cl)ccc12
7 nM | Cc1cn(Cc2ccc3ccccc3c2)c2cc(C(=O)Nc3c(Cl)cncc3Cl)ccc12
75 nM | COc1cccc(Cn2cc(C)c3ccc(C(=O)Nc4c(Cl)cncc4Cl)cc32)c1
220 nM | Cc1cn(Cc2ccc(C(N)=O)cc2)c2cc(C(=O)Nc3c(Cl)cncc3Cl)ccc12
135 nM | Cc1cn(Cc2ccccc2)c2cc(C(=O)Nc3c(Cl)cncc3Cl)ccc12
280 nM | Cc1cn(CCc2ccccc2)c2cc(C(=O)Nc3c(Cl)cncc3Cl)ccc12

Further lines, the molecule ahead of its results:

Structure (SMILES) | Ki
Cc1cn(C2CCCC2)c2cc(C(=O)Nc3c(Cl)cncc3Cl)ccc12 | 374 nM
Cc1cn(CCC2CCCCC2)c2cc(C(=O)Nc3c(Cl)cncc3Cl)ccc12 | 21 nM
Cc1cn(CCCc2ccccc2)c2cc(C(=O)Nc3c(Cl)cncc3Cl)ccc12 | 41 nM
Cc1nc(Cn2cc(C)c3ccc(C(=O)Nc4c(Cl)cncc4Cl)cc32)cs1 | 24 nM
Cc1cn(Cc2cccc3ccccc23)c2cc(C(=O)Nc3c(Cl)cncc3Cl)ccc12 | 60 nM
Cc1ccc(S(=O)(=O)n2cc(Cc3ccccc3)c3ccc(C(=O)Nc4c(Cl)cncc4Cl)cc32)cc1 | > 3745 nM
Cc1cn(CCN2CCOCC2)c2cc(C(=O)Nc3c(Cl)cncc3Cl)ccc12 | 172 nM
Cc1ccc(S(=O)(=O)n2cc(C)c3ccc(C(=O)Nc4c(Cl)cncc4Cl)cc32)cc1 | 712 nM
CCCCCCCn1cc(C)c2ccc(C(=O)Nc3c(Cl)cncc3Cl)cc21 | 66 nM
Cc1cn(CC2CCCCC2)c2cc(C(=O)Nc3c(Cl)cncc3Cl)ccc12 | 120 nM
Cc1noc(C)c1Cn1cc(C)c2ccc(C(=O)Nc3c(Cl)cncc3Cl)cc21 | 75 nM
CCc1cn(S(=O)(=O)c2ccc(C)cc2)c2cc(C(=O)Nc3c(Cl)cncc3Cl)ccc12 | > 3745 nM
Cc1cn(CCCC2CCCCC2)c2cc(C(=O)Nc3c(Cl)cncc3Cl)ccc12 | 187 nM

System: not listed separately
Assay: Terminal half life was evaluated in mice after oral administration
Format: ADME, organism-based
Details: mouse, in vivo

half-life | Structure (SMILES)
102 min | COc1ccc(Cn2cc(C)c3ccc(C(=O)Nc4c(Cl)cncc4Cl)cc32)cc1

System: PBMC
Assay: Inhibition of tumor necrosis factor-alpha release from activated human monocyte cells.
Format: functional, cell-based
Details: not given

Structure (SMILES) | IC50
Cc1cn(CCC2CCCCC2)c2cc(C(=O)Nc3c(Cl)cncc3Cl)ccc12 | 2 nM
Cc1cn(CCCc2ccccc2)c2cc(C(=O)Nc3c(Cl)cncc3Cl)ccc12 | 168 nM
Cc1cn(Cc2cccc([N+](=O)[O-])c2)c2cc(C(=O)Nc3c(Cl)cncc3Cl)ccc12 | 34 nM
Cc1nc(Cn2cc(C)c3ccc(C(=O)Nc4c(Cl)cncc4Cl)cc32)cs1 | 24.1 nM
Cc1cn(Cc2ccc(S(C)(=O)=O)cc2)c2cc(C(=O)Nc3c(Cl)cncc3Cl)ccc12 | 134 nM
Cc1cn(Cc2cccc3ccccc23)c2cc(C(=O)Nc3c(Cl)cncc3Cl)ccc12 | 1300 nM
Cc1cn(Cc2ccc3ccccc3c2)c2cc(C(=O)Nc3c(Cl)cncc3Cl)ccc12 | 90 nM
COc1ccc(Cn2cc(C)c3ccc(C(=O)Nc4c(Cl)cncc4Cl)cc32)cc1 | 60 nM
Cc1cn(Cc2ccc(C(N)=O)cc2)c2cc(C(=O)Nc3c(Cl)cncc3Cl)ccc12 | 53 nM
Cc1ccc(S(=O)(=O)n2cc(C)c3ccc(C(=O)Nc4c(Cl)cncc4Cl)cc32)cc1 | 300 nM
Cc1cn(Cc2ccccc2)c2cc(C(=O)Nc3c(Cl)cncc3Cl)ccc12 | 23 nM
CCCCCCCn1cc(C)c2ccc(C(=O)Nc3c(Cl)cncc3Cl)cc21 | 11 nM
Cc1cn(CC2CCCCC2)c2cc(C(=O)Nc3c(Cl)cncc3Cl)ccc12 | 200 nM
Cc1cn(CCc2ccccc2)c2cc(C(=O)Nc3c(Cl)cncc3Cl)ccc12 | 8 nM
Cc1noc(C)c1Cn1cc(C)c2ccc(C(=O)Nc3c(Cl)cncc3Cl)cc21 | 580 nM
Cc1cn(CCCC2CCCCC2)c2cc(C(=O)Nc3c(Cl)cncc3Cl)ccc12 | 12 nM

System: PBMC
Assay: Inhibition of tumor necrosis factor-alpha release from activated human monocyte cells at […]
Format: functional, cell-based
Details: not given

Structure (SMILES) | IC50
Cc1cn(C2CCCC2)c2cc(C(=O)Nc3c(Cl)cncc3Cl)ccc12 | 30 nM

System: PBMC
Assay: Inhibition of tumor necrosis factor-alpha release from activated human monocyte cells in the presence of RP73401.
Format: functional, cell-based
Details: not given

Structure (SMILES) | IC50
Cc1cn(C2CCCC2)c2cc(C(=O)Nc3c(Cl)cncc3Cl)ccc12 | 3 nM
Cc1cn(CCC2CCCCC2)c2cc(C(=O)Nc3c(Cl)cncc3Cl)ccc12 | 0.7 nM
Cc1cn(CCCc2ccccc2)c2cc(C(=O)Nc3c(Cl)cncc3Cl)ccc12 | 3 nM
Cc1cn(Cc2cccc([N+](=O)[O-])c2)c2cc(C(=O)Nc3c(Cl)cncc3Cl)ccc12 | 2 nM
Cc1nc(Cn2cc(C)c3ccc(C(=O)Nc4c(Cl)cncc4Cl)cc32)cs1 | 1.5 nM
Cc1cn(Cc2ccc(S(C)(=O)=O)cc2)c2cc(C(=O)Nc3c(Cl)cncc3Cl)ccc12 | > 1 nM
Cc1cn(Cc2cccc3ccccc23)c2cc(C(=O)Nc3c(Cl)cncc3Cl)ccc12 | 10 nM
Cc1cn(Cc2ccc3ccccc3c2)c2cc(C(=O)Nc3c(Cl)cncc3Cl)ccc12 | 10.5 nM
Cc1cn(CCN2CCOCC2)c2cc(C(=O)Nc3c(Cl)cncc3Cl)ccc12 | 3 nM
COc1ccc(Cn2cc(C)c3ccc(C(=O)Nc4c(Cl)cncc4Cl)cc32)cc1 | 3 nM
Cc1cn(Cc2ccc(C(N)=O)cc2)c2cc(C(=O)Nc3c(Cl)cncc3Cl)ccc12 | < 1 nM
Cc1ccc(S(=O)(=O)n2cc(C)c3ccc(C(=O)Nc4c(Cl)cncc4Cl)cc32)cc1 | 3 nM
Cc1cn(Cc2ccccc2)c2cc(C(=O)Nc3c(Cl)cncc3Cl)ccc12 | 4 nM
CCCCCCCn1cc(C)c2ccc(C(=O)Nc3c(Cl)cncc3Cl)cc21 | 3 nM
Cc1cn(CC2CCCCC2)c2cc(C(=O)Nc3c(Cl)cncc3Cl)ccc12 | 8 nM
Cc1cn(CCc2ccccc2)c2cc(C(=O)Nc3c(Cl)cncc3Cl)ccc12 | 0.9 nM
Cc1noc(C)c1Cn1cc(C)c2ccc(C(=O)Nc3c(Cl)cncc3Cl)cc21 | 18 nM
Cc1cn(CCCC2CCCCC2)c2cc(C(=O)Nc3c(Cl)cncc3Cl)ccc12 | 0.7 nM

System: not listed separately
Assay: Maximum plasma concentration was evaluated in mice after oral administration
Format: ADME, organism-based
Details: mouse, read-out: Cp max

Cmax | Structure (SMILES)
9.9 ng/mL | COc1ccc(Cn2cc(C)c3ccc(C(=O)Nc4c(Cl)cncc4Cl)cc32)cc1

System: not listed separately
Assay: Area under the curve was evaluated in mice after intravenous administration
Format: ADME, organism-based
Details: mouse, in vivo

AUC | Structure (SMILES)
678 ng·h/mL | COc1ccc(Cn2cc(C)c3ccc(C(=O)Nc4c(Cl)cncc4Cl)cc32)cc1

System: PBMC
Assay: Inhibition of tumor necrosis factor-alpha release from activated human monocyte cells at 0.3 uM
Format: functional, cell-based
Details: not given

Structure (SMILES) | IC50
Cc1cn(CCN2CCOCC2)c2cc(C(=O)Nc3c(Cl)cncc3Cl)ccc12 | 28 nM

System: not listed separately
Assay: Clearance was evaluated in mice after intravenous administration
Format: ADME, organism-based
Details: mouse, in vivo

clearance | Structure (SMILES)
24.7 mL/min/kg | COc1ccc(Cn2cc(C)c3ccc(C(=O)Nc4c(Cl)cncc4Cl)cc32)cc1

System: not listed separately
Assay: Maximum time required to reach Cp max was evaluated in mice after oral administration
Format: ADME, organism-based
Details: mouse, plasma

Tmax | Structure (SMILES)
30 min | COc1ccc(Cn2cc(C)c3ccc(C(=O)Nc4c(Cl)cncc4Cl)cc32)cc1

System: not listed separately
Assay: Bioavailability was evaluated in mice after oral administration
Format: ADME, organism-based
Details: mouse, in vivo, read-out: Bioavailabiility

bioavailability | Structure (SMILES)
3.7% | COc1ccc(Cn2cc(C)c3ccc(C(=O)Nc4c(Cl)cncc4Cl)cc32)cc1

System: not listed separately
Assay: Area under the curve was evaluated in mice after oral administration
Format: ADME, organism-based
Details: mouse, in vivo

AUC | Structure (SMILES)
25.3 ng·h/mL | COc1ccc(Cn2cc(C)c3ccc(C(=O)Nc4c(Cl)cncc4Cl)cc32)cc1
